According to patent US5629298A, “Adenosine as a positive inotrop in the compromised heart” (University of Massachusetts Medical Center, priority 1995, dated 1997):

System: myocardial membrane adenylyl cyclase
Test: Adenylyl cyclase activity of crude ventricular myocardial membranes
Type: biochemical, rat
Procedure: Crude ventricular myocardial membranes were prepared according to the following procedure. Isolated rat hearts were perfused with 5 ml of ice cold saline (0.9% NaCl) to wash out the blood, minced into 2-3 mm^3 cubes, and placed in 10 ml of homogenization buffer (HB) containing 10 mM HEPES (pH 7.4), 1 mM ethylenediamine-tetraacetic acid (EDTA), 1 mM DTT and 10 μg/ml soybean trypsin inhibitor. The suspension was homogenized with a PT-10 PolytronTM generator at a speed of 6 for two 15-second periods separated by 15 seconds. The homogenized material was also treated with 2 strokes of a glass/teflon motor driven Potter-Elvehjen homogenizer operated at 1/2 full speed. Upon addition of 4.7 ml of HB containing 1.25M sucrose the homogenate was mixed and centrifugated at 1,000 x g for 15 minutes. The supernatant was filtered through 4 layers of cheesecloth and 14.5 ml HB was added. […] Membranes were assayed immediately for adenylyl cyclase activity. […] The formed [α-^32 […] separated from the [α-^32 P]dATP by sequential chromatography using columns of cation exchange resin AG 50W-X4 (200-400 mesh) and neutral alumnia AG 7 (100-200 mesh) after the methods of Salomon (Adv. Cyclic Nucleotide Res. 10:35 (1979). All results were corrected for column recovery of [^3 […] ranged between 60 and 90%. The activity of the adenylyl cyclase is expressed as pmol [α-^32 […] formed/min/mg protein.

| SMILES | adenylyl cyclase activity (homogenate of the rat heart ventricular myocardium, only at 1 MM CGS-21680) | adenylyl cyclase activity above basal levels (adenosine at 0 to 1 mM, absence or presence of 1 μM DPCPX, myocardium membranes) |
| --- | --- | --- |
| CCNC(=O)[C@H]1O[C@@H](n2cnc3c(N)nc(NCCc4ccc(CCC(=O)O)cc4)nc32)[C@H](O)[C@@H]1O [CGS-21680, 2-p-(2-carboxy-ethyl)phenethyl-amino-5'-N-ethylcarboxamido-adenosine] | increased | – |
| Nc1ncnc2c1ncn2[C@@H]1O[C@H](CO)[C@@H](O)[C@H]1O [adenosine] | – | did not increase |
